PMC4501006, “Preliminary Characterization and In Vivo Studies of Structurally Identical ^18F- and ^125I-Labeled Benzyloxybenzenes for PET/SPECT Imaging of β-Amyloid Plaques” (Scientific Reports, 2015)
Values joined by “and” are separate entries in the source; they are usually repeats but may differ in a detail not shown here. Equal entries are not always repeated.

Columns and labels:
Aβ42 aggregates = Aβ42 aggregates (Homo sapiens, UniProt P05067); test: Competition binding assay using [125I]4 as radio-ligand; details: inhibition of [125I]4 binding to Aβ42 aggregates
Excerpt: The actual binding affinities agreed well with values predicted by the CoMFA and CoMSIA models, with pKi values deviating by less than 0.5 log unit. This satisfactory result strongly validated the reliability of the established 3D-QSAR models. This ability to accurately predict the binding activities of new benzyloxybenzene derivatives will be of great help for future efforts to design new potent Aβ imaging agents.

[1] = In vivo biodistribution in normal ICR mice; details: i.v.
Procedure: Histograms of brain and intestine uptake were presented in Fig. 6 for comparison, while detailed data concerning the in vivo biodistribution in normal ICR mice were collected in Table S3 in Supplementary information. […] [^125I]7a and [^125I]12a were rapidly cleared from the normal brain, with only small amounts of radioactivity remaining at 60 min post-injection (0.55% ID/g for [^125I]7a and 0.37% ID/g for [^125I]12a). […] In addition, no significant deiodination was observed (less than 0.5% ID in the thyroid at 60 min).
As the specific activity of ^18F-labeled ligands (about 60 GBq/μmol) was slightly lower than that of corresponding no-carrier-added ^125I-labeled ligands (81 GBq/μmol), the impact of specific activity on pharmacokinetics was studied. In vivo biodistribution of radioactivity after injection of carrier-added [^125I]7a with equal specific activity to corresponding [^18F]7a (60 GBq/μmol) was conducted in normal ICR mice through the same procedure.
A structural model of an Aβ fiber (PDB ID: 2LMO) derived from solid state NMR was downloaded from the RCSB Protein Data Bank (www.rcsb.org/pdb). Geometric optimization was performed using Gaussian 09 at the B3LYP/6–31 G and 3-21G levels in the water phase. Molecular docking was performed using AutoDock4.0, and the docking results were graphed with VMD 1.9.1 software. SYBYL-X 1.1 software was used to predict the binding affinities with previously constructed 3D-QSAR models. All reagents for chemical synthesis were used as purchased without further purification. [^125I]NaI was purchased from PerkinElmer and ^18F^– was kindly provided by the Chinese PLA General Hospital. ^1H and ^13C NMR spectra were recorded on a Bruker Avance III NMR spectrometer (400 MHz for ^1H; 101 MHz for ^13C) in CDCl3 or DMSO-d6 solutions at room temperature. Mass spectra were acquired with a GCT CA127 Micronass UK instrument. X-ray crystallographic data of compound 12a were collected on a Bruker Smart APEX II diffractometer (Bruker Co., Germany) and deposited at the Cambridge Crystallographic Data Centre as supplementary publication (no. CCDC 1063679). HPLC analysis was performed on a Shimadzu SCL-20 AVP equipped with a Bioscan Flow Count 3200 NaI/PMT γ-radiation scintillation detector and a SPD-20A UV detector, λ = 254 nm. A Venusil MP C18 reverse phase column (Agela Technologies, 5 μm, 4.6 × 250 mm) was used for separations and purity determinations with a binary gradient system (acetonitrile: water = 80%: 20%) at a 1.0 mL/min flow rate. Fluorescent observation was performed on the Axio Observer Z1 inverted fluorescence microscope (Zeiss, Germany) equipped with a DAPI filter set (excitation, 405 nm). Post-mortem brain sections from an autopsy-confirmed AD subject and a control subject were acquired from the Chinese Brain Bank. Transgenic mice (APPswe/PSEN1, male) and wild-type mice (C57BL6, male) were purchased from the Institute of Laboratory Animal Science, Chinese Academy of Medical Sciences. Normal ICR mice (20–22 g, male) were used for in vivo biodistribution, dynamic PET/CT and SPECT/CT scans, and biostability experiments. All experiments on mice were performed in accordance with the guidelines approved by the animal care committee of Beijing Normal University and Xiamen University.

Aβ plaques = Aβ plaques (Homo sapiens, UniProt P05067); test: In vitro autoradiography on AD human brain sections; format: binding
Excerpt: Figure 5 In vitro autoradiography of [^125I]7a (a–d), [^18F]7a (e–h), [^125I]12a (i–l) and [^18F]12a (m–p).

[2] = In vivo metabolism (biostability), HPLC analysis of organ samples; details: ICR mice, i.v.
Procedure: All four radioactive ligands degraded to two corresponding polar radioactive products with shorter retention times. […] The good in vivo biostability of these compounds enhances their potential for SPECT mapping of the brain. […] In the plasma, all four ligands were rapidly converted to polar metabolites, leaving only approximately 10% of the parent tracers at 60 min. […] In contrast, the breakdown of [^125I]7a and [^125I]12a was so rapid that almost negligible amounts of parent tracers remained at 30 min (8.8% and 6.3%, respectively). The polar and hydrophilic metabolites metabolized by the liver could be absorbed by the intestine and excreted through the urine, in accordance with the biodistribution results. The rapid metabolism in the liver may be another reason for the faster clearance of these compounds from the normal brain. For structurally identical molecules labeled with radioactive isotopes at different positions, the in vivo metabolic pathways were expected to be the same. However, as only radioactive products can be detected with PET/SPECT scanners, different pharmacokinetics of the radioactive components could lead to different imaging results. […] The dual radiolabeled identical benzyloxybenzene derivatives in this study were expected to undergo the same metabolic reactions, generating different radioactive metabolites. Differences in the biochemical characteristics of the radiometabolites including absorption, distribution, metabolism and excretion are responsible for the discrepancy in the pharmacokinetics of the radioactivity.

[3] = Partition coefficient determination (log D); format: physicochemical
Procedure: An ideal Aβ imaging probe would combine a high binding affinity to Aβ plaques and excellent pharmacokinetics with high initial brain uptake and rapid washout from normal brain regions. Thus, the partition coefficients of these four radiolabeled ligands were determined to estimate their ability to penetrate the BBB.

Chain of Aβ42 aggregates (P05067 672-713 limits assumed): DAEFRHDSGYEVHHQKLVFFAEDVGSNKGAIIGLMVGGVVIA
Chain of Aβ plaques (P05067 672-711 limits assumed): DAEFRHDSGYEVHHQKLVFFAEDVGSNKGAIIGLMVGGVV

FCCOc1ccc(OCc2ccc(I)cc2)cc1 [7a]
Ki (Aβ42 aggregates): 19.5 nM

FCCOc1ccc(COc2ccc(I)cc2)cc1 [12a]
Ki (Aβ42 aggregates): 23.9 nM

FCCOc1ccc(COc2ccc([125I])cc2)cc1 [[^125I]12a]
brain2 min/brain60 min ratio [1]: 14.2
Biodistribution of radioactivity, blood ([1]; 2 min): 4.96 ± 0.35 % injected dose per gram
Biodistribution of radioactivity, brain ([1]; 2 min): > 5 % injected dose per gram and 5.27 % injected dose per gram
Biodistribution of radioactivity, heart ([1]; 2 min): 6.61 ± 1.42 % injected dose per gram
Biodistribution of radioactivity, intestine ([1]; 2 min): 4.81 ± 0.97 % injected dose per organ
Biodistribution of radioactivity, kidney ([1]; 2 min): 9.16 ± 0.59 % injected dose per gram
Biodistribution of radioactivity, liver ([1]; 2 min): 18.12 ± 2.34 % injected dose per gram
Biodistribution of radioactivity, lung ([1]; 2 min): 10.30 ± 2.16 % injected dose per gram
Biodistribution of radioactivity, muscle ([1]; 2 min): 3.47 ± 0.45 % injected dose per gram
Biodistribution of radioactivity, pancreas ([1]; 2 min): 6.45 ± 0.56 % injected dose per gram
Biodistribution of radioactivity, spleen ([1]; 2 min): 2.85 ± 0.30 % injected dose per gram
Biodistribution of radioactivity, stomach ([1]; 2 min): 1.30 ± 0.14 % injected dose per organ
Biodistribution of radioactivity, thyroid ([1]; 2 min): 0.13 ± 0.02 % injected dose per organ
Biodistribution of radioactivity, brain ([1]; 2 min, listed as [125I]12a): 5.27 ± 0.98 % injected dose per gram
Biodistribution of radioactivity, blood ([1]; 10 min): 3.88 ± 0.79 % injected dose per gram
Biodistribution of radioactivity, brain ([1]; 10 min): 2.28 ± 0.27 % injected dose per gram
Biodistribution of radioactivity, heart ([1]; 10 min): 2.12 ± 0.16 % injected dose per gram
Biodistribution of radioactivity, intestine ([1]; 10 min): 10.68 ± 2.60 % injected dose per organ
Biodistribution of radioactivity, kidney ([1]; 10 min): 7.61 ± 1.23 % injected dose per gram
Biodistribution of radioactivity, liver ([1]; 10 min): 12.07 ± 1.06 % injected dose per gram
Biodistribution of radioactivity, lung ([1]; 10 min): 4.16 ± 0.26 % injected dose per gram
Biodistribution of radioactivity, muscle ([1]; 10 min): 1.31 ± 0.12 % injected dose per gram
Biodistribution of radioactivity, pancreas ([1]; 10 min): 2.44 ± 0.28 % injected dose per gram
Biodistribution of radioactivity, spleen ([1]; 10 min): 1.29 ± 0.06 % injected dose per gram
Biodistribution of radioactivity, stomach ([1]; 10 min): 1.34 ± 0.16 % injected dose per organ
Biodistribution of radioactivity, thyroid ([1]; 10 min): 0.13 ± 0.01 % injected dose per organ
Biodistribution of radioactivity, blood ([1]; 30 min): 3.89 ± 0.53 % injected dose per gram
Biodistribution of radioactivity, brain ([1]; 30 min): 0.81 ± 0.06 % injected dose per gram
Biodistribution of radioactivity, heart ([1]; 30 min): 1.67 ± 0.09 % injected dose per gram
Biodistribution of radioactivity, intestine ([1]; 30 min): 16.61 ± 3.88 % injected dose per organ
Biodistribution of radioactivity, kidney ([1]; 30 min): 7.44 ± 0.90 % injected dose per gram
Biodistribution of radioactivity, liver ([1]; 30 min): 8.68 ± 1.02 % injected dose per gram
Biodistribution of radioactivity, lung ([1]; 30 min): 3.56 ± 0.38 % injected dose per gram
Biodistribution of radioactivity, muscle ([1]; 30 min): 0.99 ± 0.17 % injected dose per gram
Biodistribution of radioactivity, pancreas ([1]; 30 min): 1.75 ± 0.10 % injected dose per gram
Biodistribution of radioactivity, spleen ([1]; 30 min): 1.03 ± 0.10 % injected dose per gram
Biodistribution of radioactivity, stomach ([1]; 30 min): 2.02 ± 0.49 % injected dose per organ
Biodistribution of radioactivity, thyroid ([1]; 30 min): 0.19 ± 0.04 % injected dose per organ
Biodistribution of radioactivity, blood ([1]; 60 min): 3.01 ± 1.07 % injected dose per gram
Biodistribution of radioactivity, brain ([1]; 60 min): 0.37 % injected dose per gram
Biodistribution of radioactivity, heart ([1]; 60 min): 1.17 ± 0.45 % injected dose per gram
Biodistribution of radioactivity, intestine ([1]; 60 min): 18.84 ± 8.75 % injected dose per organ
Biodistribution of radioactivity, kidney ([1]; 60 min): 6.09 ± 2.17 % injected dose per gram
Biodistribution of radioactivity, liver ([1]; 60 min): 4.64 ± 0.77 % injected dose per gram
Biodistribution of radioactivity, lung ([1]; 60 min): 3.11 ± 1.02 % injected dose per gram
Biodistribution of radioactivity, muscle ([1]; 60 min): 1.20 ± 0.26 % injected dose per gram
Biodistribution of radioactivity, pancreas ([1]; 60 min): 1.37 ± 0.41 % injected dose per gram
Biodistribution of radioactivity, spleen ([1]; 60 min): 0.84 ± 0.31 % injected dose per gram
Biodistribution of radioactivity, stomach ([1]; 60 min): 2.27 ± 0.40 % injected dose per organ
Biodistribution of radioactivity, thyroid ([1]; 60 min): 0.34 ± 0.10 % injected dose per organ
Biodistribution of radioactivity, brain ([1]; 60 min, listed as [125I]12a): 0.37 ± 0.06 % injected dose per gram
in vitro autoradiography, plaque labeling (Aβ plaques): specifically label Aβ deposits
Percentage of Parent tracer, Brain ([2]; post-injection time 2 min): 92.1%
Percentage of Parent tracer, Feces ([2]; post-injection time 2 min): 0.0%
Percentage of Parent tracer, Liver ([2]; post-injection time 2 min): 49.1%
Percentage of Parent tracer, Plasma ([2]; post-injection time 2 min): 88.4%
Percentage of Parent tracer, Urine ([2]; post-injection time 2 min): 0.0%
Percentage of Parent tracer, Brain ([2]; post-injection time 10 min): 82.1%
Percentage of Parent tracer, Feces ([2]; post-injection time 10 min): 0.0%
Percentage of Parent tracer, Liver ([2]; post-injection time 10 min): 21.5%
Percentage of Parent tracer, Plasma ([2]; post-injection time 10 min): 29.6%
Percentage of Parent tracer, Urine ([2]; post-injection time 10 min): 0.0%
Percentage of Parent tracer, Brain ([2]; post-injection time 30 min): 78.3%
Percentage of Parent tracer, Feces ([2]; post-injection time 30 min): 0.0%
Percentage of Parent tracer, Liver ([2]; post-injection time 30 min): 6.3%
Percentage of Parent tracer, Plasma ([2]; post-injection time 30 min): 26.3%
Percentage of Parent tracer, Urine ([2]; post-injection time 30 min): 0.0%
Percentage of Parent tracer, Brain ([2]; post-injection time 60 min): 68.6%
Percentage of Parent tracer, Feces ([2]; post-injection time 60 min): 0.0%
Percentage of Parent tracer, Liver ([2]; post-injection time 60 min): 3.8%
Percentage of Parent tracer, Plasma ([2]; post-injection time 60 min): 4.68%
Percentage of Parent tracer, Urine ([2]; post-injection time 60 min): 0.0%
logD [3]: 3.62 ± 0.15
